This is an account of results in patent US11180504B2 (ORCHID PHARMA LTD., priority 2016, dated 2021).

Test [1] relates to carbapenem sensitive Pseudomonas aeruginosa. Nature of the test: MIC by broth micro-dilution (CLSI), carbapenem sensitive P. aeruginosa. The class given is cell-based. (In broth dilution the organism is exposed to a series of concentrations in liquid medium.)
The subject of test [2] is carbapenem sensitive Escherichia coli. Put plainly: MIC by broth micro-dilution (CLSI), carbapenem sensitive E. coli. Format: cell-based.
For test [3], the system named is carbapenemase producing K. pneumoniae. Nature of the test: MIC by broth micro-dilution (CLSI), carbapenemase producing K. pneumoniae. The class given is cell-based, Klebsiella pneumoniae.
The test system of test [4] is methicillin-sensitive Staphylococcus aureus. Put plainly: MIC by broth micro-dilution (CLSI), methicillin-sensitive S. aureus. Format: cell-based. As to conditions: MSSA S. aureus ATCC29213.
Setting [5] is: Pseudomonas aeruginosa, ATCC27853, Meropenem susceptible P. aeruginosa ATCC27853, read-out: MIC.
[6] abbreviates: Escherichia coli, ATCC25922, ESBL −ve E. coli ATCC25922, read-out: MIC.
The mark [7] stands for this setting: Klebsiella pneumoniae, ATCCBAA1705, KPC-2 K. pneumoniae ATCC BAA-1705, read-out: MIC.
The mark [8] stands for this setting: Staphylococcus aureus, ATCC 29213 / MSSA, read-out: MIC.

Converted amounts (≈) assume the structure as drawn. Like-named read-outs stand apart in the source and are kept apart here.

The term MIC denotes the least concentration at which growth counts as inhibited. On to `C[C@@H](NC(=O)Cn1cnnn1)[C@H]1C(=O)N2C(C(=O)O)=C(S[C@@H]3CN[C@H](C(=O)N4C[C@@H](N)C[C@H]4CNS(C)(=O)=O)C3)[C@H](C)[C@H]12` [Example 441, (4R,5S,6R)-6-((R)-1-(2-(1H-tetrazol-1-yl)acetamido)ethyl)-3-((3S,5S)-5-((2S,4S)-4-amino-2-(methylsulfonamido-methyl)pyrrolidine-1-carbonyl)pyrrolidin-3-ylthio)-4-methyl-7-oxo-1-azabicyclo[3.2.0]hept-2-ene-2-carboxylic acid], for which the MIC in test [1] (setting [5]) turned out to be 8 µg/mL (≈ 12.5 µM); in test [2] (setting [6]), 0.25 µg/mL (≈ 0.39 µM); in test [3] (setting [7]), 2 µg/mL (≈ 3.12 µM); in test [4] (setting [8]) it was 4 µg/mL (≈ 6.24 µM).
For `C[C@@H](NC(=O)Cn1nnnc1C(F)(F)F)[C@H]1C(=O)N2C(C(=O)O)=C(S[C@@H]3CN[C@H](C(=O)N4CC[C@@H](N)C4)C3)[C@H](C)[C@H]12` [Example 347, (4R,5S,6R)-3-((3S,5S)-5-((R)-3-aminopyrrolidine-1-carbonyl)pyrrolidin-3-ylthio)-4-methyl-7-oxo-6-((R)-1-(2-(5-(trifluoromethyl)-1H-tetrazol-1-yl)acetamido)ethyl)-1-azabicyclo[3.2.0]hept-2-ene-2-carboxylic acid], in that order: more than 128 µg/mL, 0.5 µg/mL (≈ 0.831 µM), 16 µg/mL (≈ 26.6 µM) and 4 µg/mL (≈ 6.65 µM).
Regarding `C[C@@H](NC(=O)[C@@H](N)Cn1cccn1)[C@H]1C(=O)N2C(C(=O)O)=C(S[C@@H]3CN[C@H](C(=O)N(C)C)C3)[C@H](C)[C@H]12` [Example 311, (4R,5S,6R)-6-((R) - 1-((S)-2-amino-3-(1H-pyrazol-1-yl)propanamido)ethyl)-3-((3S,5S)-5-(dimethylcarbamoyl)pyrrolidin-3-ylthio)-4-methyl-7-oxo-1-azabicyclo[3.2.0]hept-2-ene-2-carboxylic acid], the MIC was more than 128 µg/mL in test [1] (setting [5]), 8 µg/mL (≈ 15.4 µM) in test [2] (setting [6]), 32 µg/mL (≈ 61.6 µM) in test [3] (setting [7]) and 32 µg/mL (≈ 61.6 µM) in test [4] (setting [8]).
On to `C[C@@H](NC(=O)Cn1cnnn1)[C@H]1C(=O)N2C(C(=O)O)=C(S[C@@H]3CN[C@H](C(=O)N4C[C@@]56CNCC5C[C@@H]4C6)C3)[C@H](C)[C@H]12` (stereo partly drawn) [Example 571, (4R,5S,6R)-6-((R)-1-(2-(1H-tetrazol-1-yl)acetamido)ethyl)-3-((3S,5S)-5-((1R,7R)-3,8-Diaza-tricyclo[5.2.1.01,5]decane-8-carbonyl)-pyrrolidin-3-ylthio)-4-methyl-7-oxo-1-azabicyclo[3.2.0]hept-2-ene-2-carboxylic acid], for which the minimal inhibitory concentration (MIC) in test [1] (setting [5]) is 1 µg/mL (≈ 1.71 µM); in test [2] (setting [6]) it was 0.06 µg/mL (≈ 0.102 µM); in test [3] (setting [7]) it was 0.5 µg/mL (≈ 0.854 µM); in test [4] (setting [8]), 1 µg/mL (≈ 1.71 µM).
As to `CNCC(=O)N[C@H](C)[C@H]1C(=O)N2C(C(=O)O)=C(S[C@@H]3CN[C@H](CNS(=O)(=O)N4CC[C@H](N)C4)C3)[C@H](C)[C@H]12` [Example 253], the MIC in test [1] (setting [5]) is 16 µg/mL (≈ 28.6 µM); in test [2] (setting [6]), 16 µg/mL (≈ 28.6 µM); in test [3] (setting [7]), 16 µg/mL (≈ 28.6 µM); in test [4] (setting [8]), 32 µg/mL (≈ 57.2 µM).
For `C[C@@H](NC(=O)Cn1cnnn1)[C@H]1C(=O)N2C(C(=O)O)=C(S[C@@H]3CN[C@H](C(=O)N4C[C@H](NC(=N)N)[C@@H](O)C4)C3)[C@H](C)[C@H]12` [Example 427, (4R,5S,6R)-6-((R)-1-(2-(1H-tetrazol-1-yl)acetamido)ethyl)-3-((3S,5S)-5-((3S,4S)-3-guanidino-4-hydroxypyrrolidine-1-carbonyl)pyrrolidin-3-ylthio)-4-methyl-7-oxo-1-azabicyclo[3.2.0]hept-2-ene-2-carboxylic acid], the minimum inhibitory concentration (MIC) is 2 µg/mL (≈ 3.38 µM) in test [1] (setting [5]), 0.25 µg/mL (≈ 0.423 µM) in test [2] (setting [6]), 1 µg/mL (≈ 1.69 µM) in test [3] (setting [7]) and 2 µg/mL (≈ 3.38 µM) in test [4] (setting [8]).
Regarding `CNC[C@@H]1CCCN1CC(=O)N[C@H](C)[C@H]1C(=O)N2C(C(=O)O)=C(S[C@@H]3CN[C@H](C(=O)N(C)C)C3)[C@H](C)[C@H]12` [Example 520, (4R,5S,6R)-3-((3S,5S)-5-(dimethylcarbamoyl)pyrrolidin-3-ylthio)-4-methyl-6-((R)-1-(2-((S)-2-((methylamino)methyl)pyrrolidin-1-yl)acetamido)ethyl)-7-oxo-1-azabicyclo[3.2.0]hept-2-ene-2-carboxylic acid], the MIC is more than 128 µg/mL in test [1] (setting [5]), 2 µg/mL (≈ 3.73 µM) in test [2] (setting [6]), 16 µg/mL (≈ 29.8 µM) in test [3] (setting [7]) and 16 µg/mL (≈ 29.8 µM) in test [4] (setting [8]).
For `C[C@H]([C@H]1C(=O)N2C(C(=O)O)=C(S[C@@H]3CN[C@H](C(=O)N4CC[C@@H](N)C4)C3)[C@H](C)[C@H]12)n1cnnn1` [Example 328, (4R,5S,6S)-6-((R) - 1-(1H-tetrazol-1-yl)ethyl)-3-((3S,5S)-5-((R)-3-aminopyrrolidine-1-carbonyl)pyrrolidin-3-ylthio)-4-methyl-7-oxo-1-azabicyclo[3.2.0]hept-2-ene-2-carboxylic acid], the MIC was 32 µg/mL (≈ 67.1 µM) in test [1] (setting [5]), 2 µg/mL (≈ 4.2 µM) in test [2] (setting [6]), 4 µg/mL (≈ 8.39 µM) in test [3] (setting [7]) and 4 µg/mL (≈ 8.39 µM) in test [4] (setting [8]).
Regarding `C[C@@H](NC(=O)Cn1cnnn1)[C@H]1C(=O)N2C(C(=O)[O-])=C(Sc3cnn(CC4CC[N+](C)(CCN)CC4)c3)[C@H](C)[C@H]12` (stereo partly drawn) [Example 594, (4R,5S,6R)-6-((R)-1-(2-(1H-tetrazol-1-yl)acetamido)ethyl)-3-(1-((1-(2-aminoethyl)-1-methylpiperidinium-4-yl)methyl)-1H-pyrazol-4-ylthio)-4-methyl-7-oxo-1-azabicyclo[3.2.0]hept-2-ene-2-carboxylate], the MIC in test [1] (setting [5]) was more than 128 µg/mL; in test [2] (setting [6]), 32 µg/mL (≈ 55.9 µM); in test [3] (setting [7]) it was more than 128 µg/mL; in test [4] (setting [8]) it was 1 µg/mL (≈ 1.75 µM).
For the compound `CNCC(=O)N[C@H](C)[C@H]1C(=O)N2C(C(=O)O)=C(S[C@@H]3CN[C@H](C(=O)N4CCC5CNCCC54)C3)[C@H](C)[C@H]12` (single isomer, unassigned) [Example 490], the MIC in test [1] (setting [5]) came out at 32 µg/mL (≈ 59.8 µM); in test [2] (setting [6]), 2 µg/mL (≈ 3.74 µM); in test [3] (setting [7]), 2 µg/mL (≈ 3.74 µM); in test [4] (setting [8]) it was 32 µg/mL (≈ 59.8 µM).
For the compound `C[C@@H](NC(=O)Cn1nc(C(F)(F)F)nc1N)[C@H]1C(=O)N2C(C(=O)O)=C(S[C@@H]3CN[C@H](C(=O)N4CC[C@@H](N)C4)C3)[C@H](C)[C@H]12` [Example 317, (4R,5S,6R)-6-((R) - 1-(2-(5-amino-3-(trifluoromethyl) - 1H-1,2,4-triazol-1-yl)acetamido)ethyl)-3-((3S,5S)-5-((R)-3-aminopyrrolidine-1-carbonyl)pyrolidin-3-ylthio)-4-methyl-7-oxo-1-azabicyclo[3.2.0]hept-2-ene-2-carboxylic acid], the MIC amounted to 128 µg/mL (≈ 208 µM) in test [1] (setting [5]), 0.5 µg/mL (≈ 0.812 µM) in test [2] (setting [6]), 8 µg/mL (≈ 13 µM) in test [3] (setting [7]) and 2 µg/mL (≈ 3.25 µM) in test [4] (setting [8]).
`C[C@@H](NC(=O)Cn1cnnn1)[C@H]1C(=O)N2C(C(=O)O)=C(S[C@@H]3CN[C@H](C(=O)N4CCC5NCCCC5C4)C3)[C@H](C)[C@H]12` (stereo partly drawn) [Example 487, (4R,5S,6R)-6-((R)-1-(2-(1H-tetrazol-1-yl)acetamidin)ethyl)-3-((3S,5S)-5-(decahydro-1,6-naphthyridine-6-carbonyl)pyrrolidin-3-ylthio)-4-methyl-7-oxo-1-azabicyclo[3.2.0]hept-2-ene-2-carboxylic acid]: the minimal inhibitory concentration (MIC) in test [1] (Meropenem susceptible P. aeruginosa ATCC27853) was found to be 8 µg/mL (≈ 13.6 µM); in test [2] (ESBL −ve E. coli ATCC25922) it was 0.25 µg/mL (≈ 0.425 µM); in test [3] (KPC-2 K. pneumoniae ATCC BAA-1705), 1 µg/mL (≈ 1.7 µM); in test [4] it was 2 µg/mL (≈ 3.4 µM).
`C[C@@H](NC(=O)Cn1cnnn1)[C@H]1C(=O)N2C(C(=O)O)=C(S[C@@H]3CN[C@H](C(=O)N4C[C@H]5C[C@H](N)C[C@@]5(CN)C4)C3)[C@H](C)[C@H]12` [Example 538, (4R,5S,6R)-6-((R)-1-(2-(1H-tetrazol-1-yl)acetamido)ethyl)-3-((3S,5S)-5-((3aR,5S,6aS)-5-amino-3a-(aminomethyl)octahydro-cyclopenta[c]pyrrole-2-carbonyl)pyrrolidin-3-ylthio)-4-methyl-7-oxo-1-azabicyclo[3.2.0]hept-2-ene-2-carboxylic acid]: the minimum inhibitory concentration (MIC) worked out at 1 µg/mL (≈ 1.66 µM) in test [1] (setting [5]), 0.25 µg/mL (≈ 0.415 µM) in test [2] (setting [6]), 2 µg/mL (≈ 3.32 µM) in test [3] (setting [7]) and 4 µg/mL (≈ 6.64 µM) in test [4] (setting [8]).
For `C[C@@H](NC(=O)Cn1cnnn1)[C@H]1C(=O)N2C(C(=O)O)=C(S[C@@H]3CN[C@H](C(=O)N4CC5[C@H](O)[C@H](N)C[C@@]5(CO)C4)C3)[C@H](C)[C@H]12` (stereo partly drawn) [Example 547, (4R,5S,6R)-6-((R)-1-(2-(1H-tetrazol-1-yl)acetamido)ethyl)-3-((3S,5S)-5-((3aS,5R,6S)-5-amino-6-hydroxy-3a-(hydroxymethyl)octahydro-cyclopenta[c]pyrrole-2-carbonyl)pyrrolidin-3-ylthio)-4-methyl-7-oxo-1-azabicyclo-[3.2.0]-hept-2-ene-2-carboxylic acid], in that order: 2 µg/mL (≈ 3.23 µM), 0.5 µg/mL (≈ 0.807 µM), 2 µg/mL (≈ 3.23 µM) and 4 µg/mL (≈ 6.45 µM).
For `CNCC(=O)N[C@H](C)[C@H]1C(=O)N2C(C(=O)O)=C(S[C@@H]3CN[C@H](C(=O)N4C[C@@H](N)C[C@H]4C)C3)[C@H](C)[C@H]12` [Example 287], in that order: 16 µg/mL (≈ 31.5 µM), 4 µg/mL (≈ 7.86 µM), 8 µg/mL (≈ 15.7 µM) and 128 µg/mL (≈ 252 µM).
Consider `C[C@@H](NC(=O)C(F)F)[C@H]1C(=O)N2C(C(=O)O)=C(S[C@@H]3CN[C@H](C(=O)N4C[C@H](NC(=N)N)[C@@H](O)C4)C3)[C@H](C)[C@H]12` [Example 247], for which the MIC in test [1] (setting [5]) was more than 128 µg/mL; in test [2] (setting [6]) it was 4 µg/mL (≈ 7.15 µM); in test [3] (setting [7]) it was 32 µg/mL (≈ 57.2 µM); in test [4] (setting [8]), 32 µg/mL (≈ 57.2 µM).
